Data on 17 substances can be found in patent US11175289B2, “Application of TRPM8 protein, related peptide fragment and their antibodies” (priority 2016, dated 2021).

Ends that are not written are not given here. * marks the point of attachment. Biotin = O=C1N[C@H]2[C@H](CS[C@H]2CCCCC(=O)*)N1

In this assay the test system is TRPM8 protein and TRPM8 related peptide fragments. Briefly: Antibody identification of monoclonal antibodies. The settings on record: monoclonal antibody against the named antigen. The format is binding, human. From the text:
Freund's adjuvant is adopted for respectively immunizing the mice.
2. Detection of TRPM8 antibody: utilizing a radioimmunoassay (RIA) method.
With FTGNESKPLCVELDEHNLPRFPE (HUMAN) [T-15], the Affinity is on record as 10^12 L/mol and the Specificity result is listed as “High”.
“CEMDI ELHDV SPITRH (CEMDIELHDVSPITRH; HUMAN) [T-12]”: the Affinity is reported as 10^12 L/mol and the Specificity result is “High”.
Taken in the same sequence, the figures for Biotin-DEVRQWYVNGVNYFTD [T-5] were 10^12 L/mol and “High”.
Take Biotin-LTVIKMEEAGDEIVSNA [T-6]: the Affinity is given as 10^12 L/mol and the Specificity entry is “High”.
For Biotin-FKNEDNETLAWEGVMKENYL [T-2], in that order: 10^12 L/mol and “High”.
As to “NRRND TLDST RTLYSS (NRRNDTLDSTRTLYSS; HUMAN) [T-10]”, the Affinity is given as 10^12 L/mol and the Specificity result is “High”.
Taken in the same sequence, the figures for KEKNMESSVCCFKNEDNET (HUMAN) [T-13] were 10^12 L/mol and “High”.
For Biotin-DGTTYDFAHCTFTGNESKPL [T-3], the Affinity is on record as 10^12 L/mol and the Specificity result is “High”.
Taken in the same sequence, the figures for Biotin-VSRNLGPKIIMLQ [T-4] were 10^12 L/mol and “High”.
For the substance “NRRNDTLDSTRTLYSSASRSTDLSYS (HUMAN) [T-16]”, the Affinity is 10^12 L/mol and the Specificity result is reported as “High”.
As for VEVEDALTSSAVKEKLVRF (HUMAN) [T-17], the Affinity was 10^12 L/mol and the Specificity result is reported as “High”.
Taken in the same sequence, the figures for “CFTGNE SKPLCV ELDEH NLPRFPE (CFTGNESKPLCVELDEHNLPRFPE; HUMAN) [T-9]” were 10^12 L/mol and “High”.
Taken in the same sequence, the figures for EMDIELHDVSPITRH (HUMAN) [T-18] were 10^12 L/mol and “High”.
For “CSEEM RHRFR QLDTK LNDLKG (CSEEMRHRFRQLDTKLNDLKG; HUMAN) [T-8]”, in that order: 10^12 L/mol and “High”.
On to SEEMRHRFRQLDTKLNDLKG (HUMAN) [T-14], for which the Affinity is on record as 10^12 L/mol and the Specificity entry is on record as “High”.
Turning to “VEVED ALTSS AVKEK LVRFC (VEVEDALTSSAVKEKLVRFC; HUMAN) [T-11]”, the Affinity is 10^12 L/mol and the Specificity result was “High”.
For the substance “CKEKN MESSV CCFKN EDNET (CKEKNMESSVCCFKNEDNET; HUMAN) [T-7]”, the Affinity is listed as 10^12 L/mol and the Specificity result is recorded as “High”.
